pIC50: −log10 of the molar value.
target: T1, Human HPK1, catalytic domain (Homo sapiens, UniProt Q92918); test: HPK1-SLP76 TR-FRET assay; type: biochemical; conditions: 75 pM HPK1, 10 uM ATP, 10 nM SLP76, 30 min compound pre-incubation
T1 construct: purchased Carna
T1 sequence (Q92918 1-346): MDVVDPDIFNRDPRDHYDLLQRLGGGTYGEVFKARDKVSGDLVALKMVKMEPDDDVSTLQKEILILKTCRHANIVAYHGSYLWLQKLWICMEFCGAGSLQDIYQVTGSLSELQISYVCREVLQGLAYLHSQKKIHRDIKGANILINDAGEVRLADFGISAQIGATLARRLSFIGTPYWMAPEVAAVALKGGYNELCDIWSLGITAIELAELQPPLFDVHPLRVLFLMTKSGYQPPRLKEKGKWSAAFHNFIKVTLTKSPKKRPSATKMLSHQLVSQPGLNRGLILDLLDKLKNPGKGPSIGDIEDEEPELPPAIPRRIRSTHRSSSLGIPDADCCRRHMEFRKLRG

| Structure (SMILES) | pIC50 |
| --- | --- |
| COc1cc2c(cc1Nc1ncc(C(N)=O)c(NC3CCc4ccc(F)cc43)n1)CN(C)CC2 (stereo not drawn) [Example 26-25, 4-[(6-fluoro-2,3-dihydro-1H-inden-1-yl)amino]-2-[(6-methoxy-2-methyl-1,2,3,4-tetrahydroisoquinolin-7-yl)amino]pyrimidine-5-carboxamide] | 9.66 |
| COc1cc2c3cc1Nc1ncc(C(N)=O)c(n1)Nc1c(F)cc(cc1F)CCCCCN(CC2)C3 [Example 19-1, 52,56-Difluoro-16-methoxy-11,12,13,14-tetrahydro-2,4-diaza-1(7,2)-isoquinolina-3(2,4)-pyrimidina-5(1,4)-benzenacyclodecaphane-35-carboxamide] | 8.52 |
| COc1nn(CC(F)(F)F)cc1Nc1ncc(C(N)=O)c(Nc2cccc3c2CCN(C)C3)n1 [Example 7-62, 2-{[3-methoxy-1-(2,2,2-trifluoroethyl)-1H-pyrazol-4-yl]amino}-4-[(2-methyl-1,2,3,4-tetrahydroisoquinolin-5-yl)amino]pyrimidine-5-carboxamide] | 7.25 |
| COc1cc2c(cc1Nc1ncc(C(N)=O)c(Nc3ccccc3CC(C)c3ccccc3)n1)CN(C)CC2 (stereo not drawn) [Example 13-7, 2-[(6-methoxy-2-methyl-1,2,3,4-tetrahydroisoquinolin-7-yl)amino]-4-{[2-(2-phenylpropyl)phenyl]amino}pyrimidine-5-carboxamide] | 6.67 |
| COc1cc2c(cc1Nc1ncc(C(N)=O)c(N[C@@H]3c4ccccc4C[C@@H]3O)n1)CN(C)CC2 [Example 26-64, 4-{[(1R,2S)-2-hydroxy-2,3-dihydro-1H-inden-1-yl]amino}-2-[(6-methoxy-2-methyl-1,2,3,4-tetrahydroisoquinolin-7-yl)amino]pyrimidine-5-carboxamide] | 9.07 |
| Cc1cccc(F)c1Nc1nc(Nc2cnn(CC(F)(F)F)c2)ncc1C(N)=O [Example 4-24, 4-[(2-fluoro-6-methylphenyl)amino]-2-{[1-(2,2,2-trifluoroethyl)-1H-pyrazol-4-yl]amino}pyrimidine-5-carboxamide] | 6.23 |

Continued, values first:

| pIC50 | Structure (SMILES) |
| --- | --- |
| 9.24 | Cc1cc(Nc2ncc(C(N)=O)c(Nc3cccc4c3CCNC4=O)n2)ccc1C1CC1 [Example 25-12, 2-[(4-cyclopropyl-3-methylphenyl)amino]-4-[(1-oxo-1,2,3,4-tetrahydroisoquinolin-5-yl)amino]pyrimidine-5-carboxamide] |
| 9.52 | CC(C)(C)c1ccc(Nc2ncc(C(N)=O)c(Nc3cccc4c3CCNC4=O)n2)cc1 [Example 25-35, 2-[(4-tert-butylphenyl)amino]-4-[(1-oxo-1,2,3,4-tetrahydroisoquinolin-5-yl)amino]pyrimidine-5-carboxamide] |
| 9.43 | CN1CCc2cc(Cl)c(Nc3ncc(C(N)=O)c(Nc4cccc5c4CCNC5=O)n3)cc2C1 [Example 7-36, 2-[(6-chloro-2-methyl-1,2,3,4-tetrahydroisoquinolin-7-yl)amino]-4-[(1-oxo-1,2,3,4-tetrahydroisoquinolin-5-yl)amino]pyrimidine-5-carboxamide] |
| 8.53 | Cc1cc(C)cc(Nc2ncc(C(N)=O)c(Nc3cccc4c3CCNC4=O)n2)c1 [Example 25-22, 2-[(3,5-dimethylphenyl)amino]-4-[(1-oxo-1,2,3,4-tetrahydroisoquinolin-5-yl)amino]pyrimidine-5-carboxamide] |
| 7.53 | NC(=O)c1cnc(Nc2cc(F)cc(F)c2)nc1Nc1cccc2c1CCNC2=O [Example 25-31, 2-[(3,5-difluorophenyl)amino]-4-[(1-oxo-1,2,3,4-tetrahydroisoquinolin-5-yl)amino]pyrimidine-5-carboxamide] |
| 9.46 | COc1cc2c(cc1Nc1ncc(C(N)=O)c(Nc3cccc4c3CCN(CC(F)(F)F)C4)n1)CN(C)CC2 [Example 7-29, 2-[(6-methoxy-2-methyl-1,2,3,4-tetrahydroisoquinolin-7-yl)amino]-4-{[2-(2,2,2-trifluoroethyl)-1,2,3,4-tetrahydroisoquinolin-5-yl]amino}pyrimidine-5-carboxamide] |

Source: US20230416225A1, “DIAMINOPYRIMIDINE CARBOXAMIDE INHIBITORS OF HPK1” (MERCK SHARP & DOHME LLC, priority 2020, published 2023)
